Common to all, as to test: Kinase selectivity, DiscoverX scanMAX Kinase assay panel (% control)
Common to all, as to type: binding

Experiment [1] concerns the target T1, kinases of the scanMAX Kinase assay panel (Homo sapiens, UniProt P57058).
T1 construct: purchased DiscoverX Co. (contract measurement) scanMAX Kinase assay panel
T1 sequence (P57058 1-714): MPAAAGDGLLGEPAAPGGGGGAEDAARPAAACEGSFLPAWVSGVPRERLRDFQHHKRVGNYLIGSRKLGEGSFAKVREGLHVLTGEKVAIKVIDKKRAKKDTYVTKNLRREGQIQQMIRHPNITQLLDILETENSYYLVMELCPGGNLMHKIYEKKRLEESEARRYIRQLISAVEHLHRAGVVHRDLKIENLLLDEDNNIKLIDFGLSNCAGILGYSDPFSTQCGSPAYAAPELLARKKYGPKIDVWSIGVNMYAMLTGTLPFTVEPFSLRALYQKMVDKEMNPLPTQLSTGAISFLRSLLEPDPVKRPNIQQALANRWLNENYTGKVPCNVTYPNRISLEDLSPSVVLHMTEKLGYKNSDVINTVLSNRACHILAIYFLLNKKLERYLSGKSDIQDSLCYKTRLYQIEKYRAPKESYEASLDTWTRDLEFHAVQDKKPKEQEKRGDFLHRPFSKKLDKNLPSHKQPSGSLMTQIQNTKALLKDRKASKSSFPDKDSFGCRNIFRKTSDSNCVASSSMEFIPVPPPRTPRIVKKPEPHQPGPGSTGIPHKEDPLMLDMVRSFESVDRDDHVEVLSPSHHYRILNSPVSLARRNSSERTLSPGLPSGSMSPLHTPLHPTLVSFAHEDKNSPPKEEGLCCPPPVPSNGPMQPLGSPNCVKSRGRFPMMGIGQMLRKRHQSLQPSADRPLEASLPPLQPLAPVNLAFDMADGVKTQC
To be noted: HUNK; 1 uM. The gist of the method:
(§1)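 A 1 uM DMSO solution of compound was applied across the panel kinases, and results were expressed as % control relative to DMSO (100%) and a positive control (0%).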

The target in experiment [2] is T2, kinases of the scanMAX Kinase assay panel (Homo sapiens, UniProt P10721, A829P).
T2 construct: purchased DiscoverX Co. (contract measurement) scanMAX Kinase assay panel
To be noted: KIT(A829P); 1 uM. In outline: as §1

Experiment [3] deals with T3, kinases of the scanMAX Kinase assay panel (Homo sapiens, UniProt Q9UM73).
T3 construct: purchased DiscoverX Co. (contract measurement) scanMAX Kinase assay panel
Conditions: ALK; 1 uM. The gist of the method:
as §1

Experiment [4] deals with T4, kinases of the scanMAX Kinase assay panel (Homo sapiens, UniProt Q15375).
T4 construct: purchased DiscoverX Co. (contract measurement) scanMAX Kinase assay panel
To be noted: EPHA7; 1 uM. The gist of the method: as §1

The target of experiment [5] is T5, kinases of the scanMAX Kinase assay panel (Homo sapiens, UniProt P11309).
T5 construct: purchased DiscoverX Co. (contract measurement) scanMAX Kinase assay panel
Conditions: PIM1; 1 uM. In outline: as §1

For experiment [6], the target named is T6, kinases of the scanMAX Kinase assay panel (Homo sapiens, UniProt O14757).
T6 construct: purchased DiscoverX Co. (contract measurement) scanMAX Kinase assay panel
T6 sequence (O14757 1-476): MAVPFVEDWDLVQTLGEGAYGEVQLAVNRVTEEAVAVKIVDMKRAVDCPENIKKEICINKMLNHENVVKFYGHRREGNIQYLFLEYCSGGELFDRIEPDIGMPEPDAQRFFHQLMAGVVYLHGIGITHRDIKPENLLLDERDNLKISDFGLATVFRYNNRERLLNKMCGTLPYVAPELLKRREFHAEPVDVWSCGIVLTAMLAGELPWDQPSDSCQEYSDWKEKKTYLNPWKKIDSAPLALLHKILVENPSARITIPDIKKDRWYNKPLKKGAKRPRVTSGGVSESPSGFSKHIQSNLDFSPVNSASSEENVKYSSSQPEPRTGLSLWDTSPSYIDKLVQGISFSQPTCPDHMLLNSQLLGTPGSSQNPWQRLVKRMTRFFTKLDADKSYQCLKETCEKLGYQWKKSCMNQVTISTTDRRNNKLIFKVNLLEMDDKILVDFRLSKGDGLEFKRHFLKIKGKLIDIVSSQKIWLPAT
Conditions: CHEK1; 1 uM. The gist of the method: as §1

The text below walks through data of patent US11208412B2 (DAEGU-GYEONGBUK MEDICAL INNOVATION FOUNDATION, priority 2017, dated 2021).

T5 sequence (P11309 whole entry): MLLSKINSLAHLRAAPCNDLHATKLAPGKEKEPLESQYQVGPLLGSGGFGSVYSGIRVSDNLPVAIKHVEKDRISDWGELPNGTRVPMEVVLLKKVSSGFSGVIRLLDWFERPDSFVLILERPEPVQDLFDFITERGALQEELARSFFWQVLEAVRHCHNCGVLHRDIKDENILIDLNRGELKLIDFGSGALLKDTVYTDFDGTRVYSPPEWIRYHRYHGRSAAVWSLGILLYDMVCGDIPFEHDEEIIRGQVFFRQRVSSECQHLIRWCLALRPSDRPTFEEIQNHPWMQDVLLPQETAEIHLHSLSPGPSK
T3 sequence (Q9UM73 19-1620): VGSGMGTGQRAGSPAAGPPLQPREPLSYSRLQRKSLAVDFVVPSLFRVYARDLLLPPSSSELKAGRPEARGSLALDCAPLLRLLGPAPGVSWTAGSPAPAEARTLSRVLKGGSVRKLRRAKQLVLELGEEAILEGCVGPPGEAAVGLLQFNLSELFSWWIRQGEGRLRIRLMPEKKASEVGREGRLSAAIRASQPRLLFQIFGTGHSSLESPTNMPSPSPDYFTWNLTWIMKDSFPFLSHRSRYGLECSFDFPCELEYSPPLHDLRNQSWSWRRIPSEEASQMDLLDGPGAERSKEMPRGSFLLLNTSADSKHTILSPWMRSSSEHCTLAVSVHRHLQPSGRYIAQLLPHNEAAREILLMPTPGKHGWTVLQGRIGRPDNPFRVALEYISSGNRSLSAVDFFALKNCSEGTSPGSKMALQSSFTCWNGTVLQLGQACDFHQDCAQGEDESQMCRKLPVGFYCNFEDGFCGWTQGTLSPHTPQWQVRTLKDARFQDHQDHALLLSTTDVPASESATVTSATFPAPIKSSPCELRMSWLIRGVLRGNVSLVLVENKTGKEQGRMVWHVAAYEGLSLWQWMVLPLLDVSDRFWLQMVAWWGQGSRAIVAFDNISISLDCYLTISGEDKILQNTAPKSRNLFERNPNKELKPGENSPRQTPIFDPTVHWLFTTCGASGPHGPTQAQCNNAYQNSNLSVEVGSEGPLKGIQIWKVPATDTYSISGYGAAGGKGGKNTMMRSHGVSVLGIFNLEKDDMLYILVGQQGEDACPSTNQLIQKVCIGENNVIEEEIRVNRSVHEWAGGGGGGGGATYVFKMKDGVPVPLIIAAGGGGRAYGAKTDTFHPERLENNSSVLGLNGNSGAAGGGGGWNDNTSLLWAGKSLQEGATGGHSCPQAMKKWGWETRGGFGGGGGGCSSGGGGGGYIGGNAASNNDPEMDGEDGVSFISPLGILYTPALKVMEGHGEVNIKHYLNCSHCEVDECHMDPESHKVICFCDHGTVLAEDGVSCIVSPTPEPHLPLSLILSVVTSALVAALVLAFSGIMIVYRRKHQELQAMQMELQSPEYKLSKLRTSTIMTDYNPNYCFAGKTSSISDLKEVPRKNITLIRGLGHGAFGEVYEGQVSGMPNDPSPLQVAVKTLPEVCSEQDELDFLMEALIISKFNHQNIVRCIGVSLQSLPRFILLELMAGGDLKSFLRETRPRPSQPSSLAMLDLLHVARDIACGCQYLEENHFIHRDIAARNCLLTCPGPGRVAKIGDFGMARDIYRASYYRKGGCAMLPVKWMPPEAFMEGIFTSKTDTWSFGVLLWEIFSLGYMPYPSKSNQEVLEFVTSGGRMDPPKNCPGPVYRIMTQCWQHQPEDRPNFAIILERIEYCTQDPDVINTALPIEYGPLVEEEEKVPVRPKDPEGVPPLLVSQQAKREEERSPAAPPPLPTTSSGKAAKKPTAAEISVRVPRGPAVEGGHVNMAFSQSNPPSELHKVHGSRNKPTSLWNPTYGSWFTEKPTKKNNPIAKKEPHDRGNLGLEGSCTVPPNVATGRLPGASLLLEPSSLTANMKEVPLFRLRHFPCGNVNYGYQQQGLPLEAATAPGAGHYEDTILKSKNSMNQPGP
T2 sequence (P10721 26-976 A829P): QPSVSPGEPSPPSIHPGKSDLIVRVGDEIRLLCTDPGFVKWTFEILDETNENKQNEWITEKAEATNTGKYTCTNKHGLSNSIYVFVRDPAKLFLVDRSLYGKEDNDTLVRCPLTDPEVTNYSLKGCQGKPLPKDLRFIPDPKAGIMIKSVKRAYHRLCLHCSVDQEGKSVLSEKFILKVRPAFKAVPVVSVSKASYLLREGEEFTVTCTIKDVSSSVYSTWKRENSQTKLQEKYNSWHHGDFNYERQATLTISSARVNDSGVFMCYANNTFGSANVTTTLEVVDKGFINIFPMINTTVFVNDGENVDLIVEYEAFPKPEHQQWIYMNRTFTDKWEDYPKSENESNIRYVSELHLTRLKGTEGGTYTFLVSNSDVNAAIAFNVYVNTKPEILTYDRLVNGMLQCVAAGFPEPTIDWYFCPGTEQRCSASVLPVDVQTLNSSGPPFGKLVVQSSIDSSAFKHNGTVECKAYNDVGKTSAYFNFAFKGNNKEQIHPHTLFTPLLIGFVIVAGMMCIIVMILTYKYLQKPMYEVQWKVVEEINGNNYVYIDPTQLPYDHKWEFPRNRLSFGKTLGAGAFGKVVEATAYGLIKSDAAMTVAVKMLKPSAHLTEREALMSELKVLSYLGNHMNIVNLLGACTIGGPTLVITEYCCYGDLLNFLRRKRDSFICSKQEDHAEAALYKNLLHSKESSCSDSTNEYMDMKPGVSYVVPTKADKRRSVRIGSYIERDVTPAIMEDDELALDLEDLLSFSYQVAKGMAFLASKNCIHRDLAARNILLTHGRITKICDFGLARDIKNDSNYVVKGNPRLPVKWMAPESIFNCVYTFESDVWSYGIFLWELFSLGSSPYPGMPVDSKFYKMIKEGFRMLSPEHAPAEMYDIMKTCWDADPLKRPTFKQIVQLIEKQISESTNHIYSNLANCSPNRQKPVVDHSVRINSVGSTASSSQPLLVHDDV
T4 sequence (Q15375 28-998): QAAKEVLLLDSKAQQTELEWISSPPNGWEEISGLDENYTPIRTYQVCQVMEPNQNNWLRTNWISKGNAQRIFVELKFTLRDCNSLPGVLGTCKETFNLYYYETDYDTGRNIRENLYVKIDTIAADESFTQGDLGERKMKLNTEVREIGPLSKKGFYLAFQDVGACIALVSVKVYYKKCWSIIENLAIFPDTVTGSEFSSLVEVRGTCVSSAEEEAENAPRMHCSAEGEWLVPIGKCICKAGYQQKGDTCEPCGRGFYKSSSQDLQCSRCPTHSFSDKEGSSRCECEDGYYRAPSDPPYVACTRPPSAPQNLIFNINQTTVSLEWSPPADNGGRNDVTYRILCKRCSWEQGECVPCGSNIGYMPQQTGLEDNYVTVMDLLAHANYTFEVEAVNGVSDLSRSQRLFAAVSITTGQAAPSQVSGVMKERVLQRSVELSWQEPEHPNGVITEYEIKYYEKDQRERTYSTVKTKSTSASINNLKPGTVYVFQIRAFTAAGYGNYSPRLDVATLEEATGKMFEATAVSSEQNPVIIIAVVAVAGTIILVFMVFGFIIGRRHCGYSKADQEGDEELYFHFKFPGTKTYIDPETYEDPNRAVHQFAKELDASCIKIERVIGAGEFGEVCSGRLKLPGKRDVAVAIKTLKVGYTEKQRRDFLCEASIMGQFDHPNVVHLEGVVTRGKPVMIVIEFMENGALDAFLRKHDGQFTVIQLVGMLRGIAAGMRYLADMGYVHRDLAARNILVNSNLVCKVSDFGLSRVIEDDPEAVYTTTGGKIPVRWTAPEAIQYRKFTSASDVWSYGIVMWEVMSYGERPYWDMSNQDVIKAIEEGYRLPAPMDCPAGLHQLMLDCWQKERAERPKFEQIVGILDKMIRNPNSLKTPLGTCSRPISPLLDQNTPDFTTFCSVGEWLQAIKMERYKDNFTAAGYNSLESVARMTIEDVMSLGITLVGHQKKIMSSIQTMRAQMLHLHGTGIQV

As for `CC1(Nc2nc(Nc3cnn([C@H]4CCN(C5COC5)C[C@@H]4F)c3Cl)nc3[nH]cc(C#N)c23)CC1` [Example 52, 2-((5-chloro-1-((3S,4S)-3-fluoro-1-(oxetane-3-yl)piperidine-4-yl)-1H-pyrazole-4-yl)amino)((1-methylcyclopropyl)amino)-7H-pyrrolo[2,3-d]pyrimidine-5-carbonitrile], the remaining binding at 1 µM in experiment [1] was 51%; in experiment [2] it was 11%; in experiment [3] it was 3%; in experiment [4], 20%; in experiment [5], 57%; in experiment [6] it was 26%.

Take `CCNc1nc(Nc2ccc(C(=O)N3CCC(N4CCOCC4)CC3)cc2OC)nc2[nH]cc(C(F)(F)F)c12` [Example 104, (4-((4-(ethylamino)-5-(trifluoromethyl)-7H-pyrrolo[2,3-d]pyrimidine-2-yl)amino)-3-methoxyphenyl)(4-morpholinopiperidine-1-yl)methanone]: the remaining binding at 1 µM in experiment [1] was determined as 0.7%; in experiment [2] it was 100%; in experiment [3], 0.35%; in experiment [4] it was 94%; in experiment [5] it was 80%; in experiment [6], 100%.

Regarding `CNc1nc(Nc2ccc(C(=O)N3CCOCC3)cc2OC)nc2[nH]cc(C#N)c12` [Example 1, 2-((2-methoxy-4-(morpholine-4-carbonyl)phenyl)amino)-4-(methylamino)-7H-pyrrolo[2,3-d]pyrimidine-5-carbonitrile], the remaining binding at 1 µM is 5.3% in experiment [1]; 60% in experiment [2]; 13% in experiment [3]; 97% in experiment [4]; 85% in experiment [5]; 85% in experiment [6].
